US8247211B2, “Glycopeptide antibiotics” (American Cyanamid Company, priority 2001, dated 2012)
In brackets after ≈: the same amount, converted by molar mass.

Columns and labels:
Experiment in all cases: In vitro antibacterial evaluation: minimum inhibitory concentration (MIC), broth dilution method
Type in all cases: cell-based
Conditions in all cases: 18 hours at 35° C.
[1] = test system: Streptococcus sp.
How it was run: (§1)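 NCCLS M7-A2 broth dilution; Muller-Hinton II […]; 5×10^5 CFU/mL; 64-0.06 μg/mL. MIC = lowest concentration with no growth.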

[2] = test system: Escherichia coli
How it was run: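 NCCLS M7-A2 broth dilution with Mueller-Hinton II, testing 64-0.06 μg/mL antibiotic against 5×10^5 CFU/mL inocula. Test strains include recent methicillin-, penicillin- or vancomycin-resistant clinical isolates. MIC is the lowest concentration preventing growth.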

[3] = test system: Staphylococcus sp.
How it was run: as §1

[4] = test system: Enterococcus sp.
How it was run: as §1

[5] = Streptococcus agalactiae (GC 4564)
[6] = Streptococcus pneumoniae (ATCC 6301)
[7] = Streptococcus pneumoniae (GC 1894)
[8] = Streptococcus pneumoniae (GC 4565)
[9] = Streptococcus pyogenes (GC 4563)
[10] = broth dilution, inoculum 5×10^5 CFU/mL
[11] = Enterococcus faecalis (GC 2242)
[12] = Enterococcus faecalis (GC 2691)
[13] = Enterococcus faecalis (GC 3059)

## CC(c1ccccc1)C1NC(=O)CNC(=O)C(CO)NC(=O)C(C(O)C2CNC(=N)N2C2OC(CO)C(O)C(O)C2O)NC(=O)C(C(O)C2CNC(=N)N2)NC(=O)C(Cc2ccc(OC3OC(CO)C(OC4OC(CO)C(OCC=C(c5ccccc5)c5ccccc5)C(O)C4O)C(O)C3O)cc2)NC1=O (stereo not drawn) [Example 241a, Cyclo[glycyl-β-methylphenylalanyl-O-[4-O-[4-O-(3,3-diphenylprop-2-en-1-yl)hexopyranosyl]-hexopyranosyl]tyrosyl-3-(2-iminoimidazolidin-4-yl)seryl-3-[3-hexopyranosyl-2-iminoimidazolidin-4-yl)serylseryl]]
[1]; [5]
  MIC Streptococcus agalactiae (GC 4564): <0.06 µg/mL
[1]; [6]
  MIC Streptococcus pneumoniae (ATCC 6301): <0.06 µg/mL
[1]; [7]
  MIC Streptococcus pneumoniae (GC 1894): <0.06 µg/mL
[1]; [8]
  MIC Streptococcus pneumoniae (GC 4565): <0.06 µg/mL
[1]; [9]
  MIC Streptococcus pyogenes (GC 4563): <0.06 µg/mL
[1]; [10]
  MIC Streptococcus agalactiae (GC 4564): <0.06 µg/mL
  MIC Streptococcus pneumoniae (ATCC 6301): <0.06 µg/mL
  MIC Streptococcus pneumoniae (GC 1894): <0.06 µg/mL
  MIC Streptococcus pneumoniae (GC 4565): <0.06 µg/mL
  MIC Streptococcus pyogenes (GC 4563): <0.06 µg/mL
[2]
  MIC Escherichia coli (ATCC 25922): >64 µg/mL
  MIC Escherichia coli (GC 4559): >64 µg/mL
  MIC Escherichia coli (GC 4560): 2 µg/mL (≈ 1.34 µM)
[3]
  MIC Coagulase Negative Staphylococcus (GC 4547): 4 µg/mL (≈ 2.69 µM)
  MIC Coagulase Negative Staphylococcus (GC 4548): 2 µg/mL (≈ 1.34 µM)
  MIC Coagulase Negative Staphylococcus (GC 4549): 1 µg/mL (≈ 0.672 µM)
  MIC Coagulase Negative Staphylococcus (GC 4551): 4 µg/mL (≈ 2.69 µM)
  MIC Coagulase Negative Staphylococcus (GC 6257): 1 µg/mL (≈ 0.672 µM)
  MIC Staphylococcus aureus (ATCC 29213): 2 µg/mL (≈ 1.34 µM)
  MIC Staphylococcus aureus (GC 1131): 2 µg/mL (≈ 1.34 µM)
  MIC Staphylococcus aureus (GC 3051): 2 µg/mL (≈ 1.34 µM)
  MIC Staphylococcus aureus (GC 3053): 2 µg/mL (≈ 1.34 µM)
  MIC Staphylococcus aureus (GC 4541): 2 µg/mL (≈ 1.34 µM)
  MIC Staphylococcus aureus (GC 4542): 2 µg/mL (≈ 1.34 µM)
  MIC Staphylococcus aureus (GC 4544): 4 µg/mL (≈ 2.69 µM)
  MIC Staphylococcus aureus (GC 4545): 2 µg/mL (≈ 1.34 µM)
  MIC Staphylococcus aureus-SMITH (GC 4543): 2 µg/mL (≈ 1.34 µM)
  MIC Staphylococcus haemolyticus (GC 4546): 2 µg/mL (≈ 1.34 µM)
[4]
  MIC Enterococcus avium (GC 4558): 2 µg/mL (≈ 1.34 µM)
  MIC Enterococcus faecalis (ATCC 29212): 4 µg/mL (≈ 2.69 µM)
  MIC Enterococcus faecalis (GC 4552): 4 µg/mL (≈ 2.69 µM)
  MIC Enterococcus faecalis (GC 4553): 4 µg/mL (≈ 2.69 µM)
  MIC Enterococcus faecalis (GC 4554): 4 µg/mL (≈ 2.69 µM)
  MIC Enterococcus faecalis (GC 6189): 2 µg/mL (≈ 1.34 µM)
  MIC Enterococcus faecium (GC 2243): 2 µg/mL (≈ 1.34 µM)
  MIC Enterococcus faecium (GC 4556): 2 µg/mL (≈ 1.34 µM)
  MIC Enterococcus faecium (GC 4557): 2 µg/mL (≈ 1.34 µM)
[4]; [11]
  MIC Enterococcus faecalis (GC 2242): 4 µg/mL (≈ 2.69 µM)
[4]; [12]
  MIC Enterococcus faecalis (GC 2691): 2 µg/mL (≈ 1.34 µM)
[4]; [13]
  MIC Enterococcus faecalis (GC 3059): 2 µg/mL (≈ 1.34 µM)
[4]; [10]
  MIC Enterococcus faecalis (GC 2242): 4 µg/mL (≈ 2.69 µM)
  MIC Enterococcus faecalis (GC 2691): 2 µg/mL (≈ 1.34 µM)
  MIC Enterococcus faecalis (GC 3059): 2 µg/mL (≈ 1.34 µM)

## CC(c1ccccc1)C1NC(=O)CNC(=O)C(CO)NC(=O)C(C(O)C2CNC(=N)N2C2OC(CO)C(O)C(O)C2O)NC(=O)C(C(O)C2CNC(=N)N2)NC(=O)C(Cc2ccc(OC3OC(CO)C(OC4OC(COCC=Cc5ccccc5)C(O)C(O)C4O)C(O)C3O)cc2)NC1=O (stereo not drawn) [Example 242, Cyclo[glycyl-β-methylphenylalanyl-O-[4-O-[6-O-(3-phenylprop-2-en-1-yl)hexopyranosyl]-hexopyranosyl]tyrosyl-3-(2-iminoimidazolidin-4-yl)seryl-3-(3-hexopyranosyl-2-iminoimidazolidin-4-yl)serylseryl]]
[1]; [5]
  MIC Streptococcus agalactiae (GC 4564): 2 µg/mL (≈ 1.42 µM)
[1]; [6]
  MIC Streptococcus pneumoniae (ATCC 6301): 1 µg/mL (≈ 0.708 µM)
[1]; [7]
  MIC Streptococcus pneumoniae (GC 1894): 0.5 µg/mL (≈ 0.354 µM)
[1]; [8]
  MIC Streptococcus pneumoniae (GC 4565): 0.5 µg/mL (≈ 0.354 µM)
[1]; [9]
  MIC Streptococcus pyogenes (GC 4563): 2 µg/mL (≈ 1.42 µM)
[1]; [10]
  MIC Streptococcus agalactiae (GC 4564): 2 µg/mL (≈ 1.42 µM)
  MIC Streptococcus pneumoniae (ATCC 6301): 1 µg/mL (≈ 0.708 µM)
  MIC Streptococcus pneumoniae (GC 1894): 0.5 µg/mL (≈ 0.354 µM)
  MIC Streptococcus pneumoniae (GC 4565): 0.5 µg/mL (≈ 0.354 µM)
  MIC Streptococcus pyogenes (GC 4563): 2 µg/mL (≈ 1.42 µM)
[2]
  MIC Escherichia coli (ATCC 25922): >64 µg/mL
  MIC Escherichia coli (GC 4559): >64 µg/mL
  MIC Escherichia coli (GC 4560): 2 µg/mL (≈ 1.42 µM)
[3]
  MIC Coagulase Negative Staphylococcus (GC 4547): 8 µg/mL (≈ 5.67 µM)
  MIC Coagulase Negative Staphylococcus (GC 4548): 4 µg/mL (≈ 2.83 µM)
  MIC Coagulase Negative Staphylococcus (GC 4549): 4 µg/mL (≈ 2.83 µM)
  MIC Coagulase Negative Staphylococcus (GC 4551): 16 µg/mL (≈ 11.3 µM)
  MIC Coagulase Negative Staphylococcus (GC 6257): 2 µg/mL (≈ 1.42 µM)
  MIC Staphylococcus aureus (ATCC 29213): 8 µg/mL (≈ 5.67 µM)
  MIC Staphylococcus aureus (GC 1131): 8 µg/mL (≈ 5.67 µM)
  MIC Staphylococcus aureus (GC 3051): 8 µg/mL (≈ 5.67 µM)
  MIC Staphylococcus aureus (GC 3053): 8 µg/mL (≈ 5.67 µM)
  MIC Staphylococcus aureus (GC 4541): 4 µg/mL (≈ 2.83 µM)
  MIC Staphylococcus aureus (GC 4542): 4 µg/mL (≈ 2.83 µM)
  MIC Staphylococcus aureus (GC 4544): 8 µg/mL (≈ 5.67 µM)
  MIC Staphylococcus aureus (GC 4545): 4 µg/mL (≈ 2.83 µM)
  MIC Staphylococcus aureus-SMITH (GC 4543): 8 µg/mL (≈ 5.67 µM)
  MIC Staphylococcus haemolyticus (GC 4546): 4 µg/mL (≈ 2.83 µM)
[4]
  MIC Enterococcus avium (GC 4558): 16 µg/mL (≈ 11.3 µM)
  MIC Enterococcus faecalis (ATCC 29212): 16 µg/mL (≈ 11.3 µM)
  MIC Enterococcus faecalis (GC 4552): 16 µg/mL (≈ 11.3 µM)
  MIC Enterococcus faecalis (GC 4553): 16 µg/mL (≈ 11.3 µM)
  MIC Enterococcus faecalis (GC 4554): 16 µg/mL (≈ 11.3 µM)
  MIC Enterococcus faecalis (GC 6189): 16 µg/mL (≈ 11.3 µM)
  MIC Enterococcus faecium (GC 2243): 16 µg/mL (≈ 11.3 µM)
  MIC Enterococcus faecium (GC 4556): 16 µg/mL (≈ 11.3 µM)
  MIC Enterococcus faecium (GC 4557): 8 µg/mL (≈ 5.67 µM)
[4]; [11]
  MIC Enterococcus faecalis (GC 2242): 16 µg/mL (≈ 11.3 µM)
[4]; [12]
  MIC Enterococcus faecalis (GC 2691): 16 µg/mL (≈ 11.3 µM)
[4]; [13]
  MIC Enterococcus faecalis (GC 3059): 16 µg/mL (≈ 11.3 µM)
[4]; [10]
  MIC Enterococcus faecalis (GC 2242): 16 µg/mL (≈ 11.3 µM)
  MIC Enterococcus faecalis (GC 2691): 16 µg/mL (≈ 11.3 µM)
  MIC Enterococcus faecalis (GC 3059): 16 µg/mL (≈ 11.3 µM)
